Source: article PMC11912270, “Synthesis and SAR Studies of Acyl-Thiourea Platinum(II) Complexes Yield Analogs with Dual-Stage Antiplasmodium Activity” (ACS Medicinal Chemistry Letters, 2025)

System: late-stage gametocytes (NF54-PfS16-GFP-Luc)
Test: Luciferase reporter assay, late-stage gametocytes
Assay type: cell-based, Plasmodium falciparum
Description: All the complexes were tested for their early- and late-stage gametocyte activity in a dual-point assay (1 μM and 5 μM). […]
1.5.In vitro activity against gametocyte stages
PfNF54 gametocytes were prepared and isolated according to the method reported by Reader […]
The in vitro gametocyte activity of the synthesized complexes was determined using a luciferase reporter line-based assay.
NF54-PfS16-GFP-Luc parasites were used for the stage-specific assessment of gametocytocidal activity. Early-stage gametocyte (stage I-III) experiments were performed on day 5 (representing >90% of early-stage and late-stage gametocyte (stages IV/V) experiments were performed on day 10. In each experiment, assays were set up with the use of 2-3% […]
Luciferase activity was determined in 30 µL parasite lysates by adding luciferin substrate (30 µL) (Promega Luciferase Assay System) at room temperature. […]

Nc1cc[n+]2c(c1)-c1cc(N)cc[n+]1[Pt-2]21[O+]=C(c2ccccc2)N=C(N(CCO)CCO)[S]1.[Cl-] [C6]
LG (% inhibition) 1 µM (1 µM, single biological repeat): 42.3 % inhibition
LG (% inhibition) 5 µM (5 µM, single biological repeat): 32.4 % inhibition
IC50 (late (IV/V) gametocytes, luciferase, 48 h, read-out: LG IC50): > 20 µM
